Patent US20130323314A1, “Novel Nanoparticles of Lactoferrin Useful for Preparing a Pharmaceutical Composition Facilitating Easy Delivery of the Drug and a Process for Preparing the Same” (UNIVERSITY OF HYDERABAD, priority 2011, published 2013)
Counter-ions that a name gives are not always drawn. Like-named read-outs stand apart in the source and are kept apart here. Marks after values point to notes of the source that are not given here.

Tests used:
[1] = Pharmacokinetics and tissue distribution after subcutaneous administration; conditions: rat
[2] = test system: heart; conditions: rat, in vivo
[3] = Pharmacokinetics and tissue distribution after intravenous administration; conditions: rat
[4] = Pharmacokinetics and tissue distribution after oral administration; conditions: rat
[5] = in vivo; conditions: rat, im
[6] = Pharmacokinetics and tissue distribution after intramuscular administration; conditions: rat
[7] = in vivo; conditions: rat, iv
[8] = in vivo; conditions: rat, po
[9] = in vivo; conditions: rat, sc

Structure (SMILES): COc1cccc2c1C(=O)c1c(O)c3c(c(O)c1C2=O)C[C@@](O)(C(=O)CO)C[C@@H]3O[C@H]1C[C@H](N)[C@H](O)[C@H](C)O1 [Doxo, Doxorubicin hydrochloride]
- AUC ([1]; Blood): 167.94 (h) * (μg/μL)
- AUMC ([1]; Blood): 1745.8 (h)^2 * (μg/μL)
- Cmax ([1]; Blood): 12855 µg/mL
- MRT last ([1]; Blood): 10.394 h
- t½ ([1]; Blood): 7.0001 h
- AUC ([1]; Heart): 467.46 (h) * (μg/μL)
- AUMC ([1]; Heart): 13515 (h)^2 * (μg/μL)
- Cmax ([1]; Heart): 18198 µg/mL
- MRT last ([1]; Heart): 28.912 h
- t½ ([1]; Heart): 18.662 h
- AUC ([1]; Kidney): 2249.1 (h) * (μg/g)
- AUMC ([1]; Kidney): 19205 (h)^2 * (μg/g)
- Cmax ([1]; Kidney): 200.93 h
- MRT last ([1]; Kidney): 8.5383 h
- t½ ([1]; Kidney): 3.888 h
- AUC ([1]; Liver): 1025 (h) * (μg/μL)
- AUMC ([1]; Liver): 10140 (h)^2 * (μg/μL)
- Cmax ([1]; Liver): 71123 µg/mL
- MRT last ([1]; Liver): 9.8923 h
- t½ ([1]; Liver): 5.9991 h
- AUC ([1]; Spleen): 553.3 (h) * (μg/g)
- AUMC ([1]; Spleen): 7927.3 (h)^2 * (μg/g)
- Cmax ([1]; Spleen): 34.747 h
- MRT last ([1]; Spleen): 14.327 h
- t½ ([1]; Spleen): 5.3088 h
- toxicity to heart (safety analysis) [2]: cardiotoxic
- toxicity to heart (safety analysis) ([2]; iv): cardiotoxic
- toxicity to heart (safety analysis) ([2]; po): cardiotoxic
- toxicity to heart (safety analysis) ([2]; sc): cardiotoxic
- Cmax ([3]; Blood): 22286.7 µg/mL
- t½ ([3]; Heart): 4.444 h
- t½ ([3]; Kidney): 2.63 h
- t½ ([3]; Liver): 3.432 h
- t½ ([3]; Spleen): 3.833 h
- AUC ([4]; Blood): 105.24 (h) * (μg/μL)
- AUMC ([4]; Blood): 1227.63 (h)^2 * (μg/μL)
- Cmax ([4]; Blood): 8250 µg/mL
- t½ ([4]; Blood): 3.741 h
- AUC ([4]; Heart): 248.048 (h) * (μg/g)
- AUMC ([4]; Heart): 3211.86 (h)^2 * (μg/g)
- MRT last ([4]; Heart): 8.9708 h
- Tmax ([4]; Heart): 16 h
- t½ ([4]; Heart): 7.533 h
- AUC ([4]; Kidney): 362.639 (h) * (μg/g)
- AUMC ([4]; Kidney): 4321.31 (h)^2 * (μg/g)
- t½ ([4]; Kidney): 6.47 h
- AUC ([4]; Liver): 207.816 (h) * (μg/g)
- AUMC ([4]; Liver): 2379.51 (h)^2 * (μg/g)
- MRT last ([4]; Liver): 7.428 h
- t½ ([4]; Liver): 6.099 h
- AUC ([4]; Spleen): 190.928 (h) * (μg/g)
- AUMC ([4]; Spleen): 2616.55 (h)^2 * (μg/g)
- MRT last ([4]; Spleen): 9.2978 h
- t½ ([4]; Spleen): 5.894 h
- Tmax [5]: 8 h
- AUC ([6]; Blood): 185.4 (h) * (μg/μL)
- AUMC ([6]; Blood): 1581.8 (h)^2 * (μg/μL)
- Cmax ([6]; Blood): 11032 µg/mL
- MRT last ([6]; Blood): 8.5317 h
- t½ ([6]; Blood): 4.466 h
- AUC ([6]; Heart): 510.54 (h) * (μg/g)
- AUMC ([6]; Heart): 12046 (h)^2 * (μg/g)
- MRT last ([6]; Heart): 23.595 h
- t½ ([6]; Heart): 13.27 h
- AUC ([6]; Kidney): 2580.5 (h) * (μg/g)
- AUMC ([6]; Kidney): 26548 (h)^2 * (μg/g)
- MRT last ([6]; Kidney): 10.288 h
- t½ ([6]; Kidney): 2.0438 h
- AUC ([6]; Liver): 751.01 (h) * (μg/g)
- AUMC ([6]; Liver): 10278 (h)^2 * (μg/g)
- MRT last ([6]; Liver): 13.685 h
- t½ ([6]; Liver): 4.9231 h
- AUC ([6]; Spleen): 899.9 (h) * (μg/g)
- AUMC ([6]; Spleen): 19234 (h)^2 * (μg/g)
- MRT last ([6]; Spleen): 21.374 h
- t½ ([6]; Spleen): 13.602 h
- Tmax [7]: 8 h
- half-life [7]: 2.74 h
- Cmax ([8]; heart): 17200 ng/g
- MRT last ([8]; in vivo): 8.21 h
- Tmax ([8]; in vivo): 8 h
- Cmax ([8]; kidney): 32900 ng/g
- Cmax ([8]; liver): 17400 ng/g
- Cmax ([8]; spleen): 11100 ng/g
- Tmax [9]: 8 h
